Here are results for 6 compounds from patent publication US20260241307A1, “PROCESS FOR MAKING DRUG CRYSTALS OF DESIRED SIZE DISTRIBUTION AND MORPHOLOGY” (EUPRAXIA PHARMACEUTICALS INC., priority 2019, published 2026).

Format in all cases: physicochemical
A short description of series [1]: Laser diffraction particle size analysis of recrystallized crystals. The settings on record: large scale batch, recrystallized from methanol, slow evaporation, isotherm 25° C. An excerpt: As used herein, laser diffraction is the methodology used for measuring and analyzing particle size and size distribution of a sample or collection of particles (e.g., the recrystallized columnar crystals and the sized crystals). More specifically, a D10 value refers to the diameter at which 10% of the sample's mass is comprised of particles with a diameter less than this value. Likewise, a D50 value is the diameter of the particle that 50% of a sample's mass is smaller than and 50% of a sample's mass is larger than the value.
In histogram, D10, D50 and D90 are intercepts for 10%, 50% and 90% of the cumulative mass in the particles size. Since the density is the same for all particles, then the mass and volume are linearly related, thus the % remains the same. The method used also reports the cumulative distribution in volume.
Different large-scale batches were run to show the reproducibility of the recrystallization method. Laser diffraction results of particle size analysis for four large scale batches are below:
(§1) The laser diffraction method assumes an equivalent sphere when calculating the results. The aspect ratio in the imaging analysis show a range of aspect ratio from 3 to 50, while a majority of aspect ratios are in the range of 5-20.

The nature of series [2]: Imaging analysis of aspect ratio.
Excerpt: as §1

Series [3] in a line: Particle size distribution by Malvern particle size analyzer (sized crystals). The settings on record: after milling in rotor/stator homogenizer and sieving. An excerpt:
The milled crystals were then sieved through two separate sieves to eliminate fines or remnant large crystals. […] As shown, the drug crystal obtained have relatively narrow distribution and the minimal amount of fine material and absence of very fine material (no particles below 9 μm).

On to `CCC(=O)O[C@]1(C(=O)SCF)[C@H](C)C[C@H]2[C@@H]3C[C@H](F)C4=CC(=O)C=C[C@]4(C)[C@@]3(F)[C@@H](O)C[C@@]21C` [Batch 2, fluticasone propionate], for which, in series [1], the D10 was 97 µm, the D50 was 323 µm and the D90 worked out at 838 µm.

As to `CCC(=O)O[C@]1(C(=O)SCF)[C@H](C)C[C@H]2[C@@H]3C[C@H](F)C4=CC(=O)C=C[C@]4(C)[C@@]3(F)[C@@H](O)C[C@@]21C` [Batch 1, fluticasone propionate], in series [1], the D10 worked out at 119 µm, the D50 is 365 µm and the D90 stood at 876 µm.

Take `CCC(=O)O[C@]1(C(=O)SCF)[C@H](C)C[C@H]2[C@@H]3C[C@H](F)C4=CC(=O)C=C[C@]4(C)[C@@]3(F)[C@@H](O)C[C@@]21C` [Batch 4, fluticasone propionate]: in series [1], the D10 came out at 82 µm, the D50 was 288 µm and the D90 turned out to be 820 µm.

In series [1], `CCC(=O)O[C@]1(C(=O)SCF)[C@H](C)C[C@H]2[C@@H]3C[C@H](F)C4=CC(=O)C=C[C@]4(C)[C@@]3(F)[C@@H](O)C[C@@]21C` [Batch 3, fluticasone propionate] yielded a D10 of 72 µm, a D50 of 253 µm and a D90 of 798 µm.

`CCC(=O)O[C@]1(C(=O)SCF)[C@H](C)C[C@H]2[C@@H]3C[C@H](F)C4=CC(=O)C=C[C@]4(C)[C@@]3(F)[C@@H](O)C[C@@]21C` [recrystallized fluticasone propionate, fluticasone propionate]: the “aspect ratio, majority” value in series [2] (majority of aspect ratios) was 5-20. Besides, the “aspect ratio, range” value in series [2] (whole range) fell in the range of 3 to 50.

For `CCC(=O)O[C@]1(C(=O)SCF)[C@H](C)C[C@H]2[C@@H]3C[C@H](F)C4=CC(=O)C=C[C@]4(C)[C@@]3(F)[C@@H](O)C[C@@]21C` [resized drug crystals, fluticasone propionate], the “smallest particle size (no particles below)” value in series [3] was at least 9 μm.
